Experimental data taken from US20240150377A1, “MODULATORS OF CYSTIC FIBROSIS TRANSMEMBRANE CONDUCTANCE REGULATOR” (VERTEX PHARMACEUTICALS INCORPORATED, priority 2020, published 2024).
Read-outs that look alike come from different tables or passages of the source.

Target: T1, CFTR (Homo sapiens, UniProt P13569, DEL508-508)
T1 construct: endogenous in cells; host or cells: primary human bronchial epithelial cells from CF subjects (F508del/MF-HBE), differentiated at air-liquid interface
Assay: HBE assay: Ussing chamber assay of CFTR-mediated short-circuit currents
Type: cell-based
Details: for Emax: read-out: HBE Max Activity (%); for activation at 10 µM: read-out: HBE Activity at 10 μM (%)
In short: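 CFTR-mediated Isc (μA/cm²) equals the peak response to apical 20 μM forskolin minus the residual after a 20 μM each BPO/GlyH-101/CFTR inhibitor 172 cocktail, recorded in Ussing chambers at Vhold 0 mV, 37 °C, pH 7.4, with 30 μM apical amiloride. Cells were F508del/MF HBE cultures preincubated 18-24 h with corrector (concentration range or 10 μM) plus 1 μM ivacaftor in 20% human serum.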

T1 sequence (P13569 with tags, fused parts or gaps DEL508-508): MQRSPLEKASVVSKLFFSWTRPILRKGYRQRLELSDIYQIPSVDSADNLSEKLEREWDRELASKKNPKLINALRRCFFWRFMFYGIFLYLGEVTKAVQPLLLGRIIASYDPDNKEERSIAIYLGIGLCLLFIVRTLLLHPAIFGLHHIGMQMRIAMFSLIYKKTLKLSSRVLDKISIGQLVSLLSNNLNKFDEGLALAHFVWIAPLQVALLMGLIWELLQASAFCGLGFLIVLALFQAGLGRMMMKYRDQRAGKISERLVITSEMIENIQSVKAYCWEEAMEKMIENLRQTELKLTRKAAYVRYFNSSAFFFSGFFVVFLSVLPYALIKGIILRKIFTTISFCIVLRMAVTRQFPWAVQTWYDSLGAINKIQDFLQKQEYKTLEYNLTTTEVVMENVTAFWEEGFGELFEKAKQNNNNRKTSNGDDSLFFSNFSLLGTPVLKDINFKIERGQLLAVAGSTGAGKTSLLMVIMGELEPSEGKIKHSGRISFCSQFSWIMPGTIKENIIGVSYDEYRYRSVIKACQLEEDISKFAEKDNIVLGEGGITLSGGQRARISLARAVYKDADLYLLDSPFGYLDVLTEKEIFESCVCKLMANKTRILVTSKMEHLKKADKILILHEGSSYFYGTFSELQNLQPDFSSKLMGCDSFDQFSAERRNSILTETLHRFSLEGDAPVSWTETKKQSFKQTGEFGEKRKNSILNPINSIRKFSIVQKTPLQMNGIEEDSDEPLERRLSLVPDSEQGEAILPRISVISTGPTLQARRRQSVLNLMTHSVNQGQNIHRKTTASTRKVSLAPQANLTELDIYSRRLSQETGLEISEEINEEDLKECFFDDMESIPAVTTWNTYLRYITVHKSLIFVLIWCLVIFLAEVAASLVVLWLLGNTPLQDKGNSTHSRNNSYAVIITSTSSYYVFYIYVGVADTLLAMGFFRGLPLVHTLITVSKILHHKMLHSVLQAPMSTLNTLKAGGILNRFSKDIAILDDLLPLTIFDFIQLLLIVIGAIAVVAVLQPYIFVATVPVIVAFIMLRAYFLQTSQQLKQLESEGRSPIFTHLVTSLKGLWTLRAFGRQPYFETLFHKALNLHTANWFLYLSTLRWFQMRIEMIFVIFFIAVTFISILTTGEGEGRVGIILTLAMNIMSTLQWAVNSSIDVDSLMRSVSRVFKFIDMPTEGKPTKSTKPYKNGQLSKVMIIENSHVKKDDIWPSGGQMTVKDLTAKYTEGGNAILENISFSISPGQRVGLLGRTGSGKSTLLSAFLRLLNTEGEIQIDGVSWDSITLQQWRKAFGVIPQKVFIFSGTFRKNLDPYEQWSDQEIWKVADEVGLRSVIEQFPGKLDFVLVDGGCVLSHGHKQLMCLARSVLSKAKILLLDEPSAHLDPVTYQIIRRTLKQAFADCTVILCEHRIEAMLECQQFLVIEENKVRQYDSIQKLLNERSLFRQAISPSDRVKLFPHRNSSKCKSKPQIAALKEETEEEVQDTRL

Compound | EC50 (Table 11, read-out: HBE EC50) | Emax (Table 11) | further results
Cc1cccc(C)c1-c1cc2nc(n1)NS(=O)(=O)c1cccc(c1)C(=O)N(Cc1cccc(N3CCCC3(C)C)n1)[C@H](CC(C)(C)C)CO2 [Compound 592] |  |  | EC50 (Table 12, read-out: HBE EC50): 1 to 3 µM; Emax (Table 12): > 60%
C=C(C)c1nccc(CN2C(=O)c3cccc(c3)S(=O)(=O)Nc3nc(cc(-c4c(C)cccc4C)n3)OC[C@H]2CC(C)(C)C)n1 [Compound 593] |  |  | EC50 (Table 12, read-out: HBE EC50): < 1 µM; Emax (Table 12): > 60%
Cc1cccc(C)c1-c1cc2nc(n1)NS(=O)(=O)c1cccc(c1)C(=O)N(Cc1ccnc(CC(C)C)n1)[C@H](CC(C)(C)C)CO2 [Compound 594] |  |  | EC50 (Table 12, read-out: HBE EC50): < 1 µM; Emax (Table 12): > 60%
Cc1cccc(C)c1-c1cc2nc(n1)NS(=O)(=O)c1cccc(c1)C(=O)N(Cc1ccnc(OC(C)C)n1)[C@H](CC(C)(C)C)CO2 [Compound 595] |  |  | EC50 (Table 12, read-out: HBE EC50): < 1 µM; Emax (Table 12): > 60%
CC(C)=Cc1nccc(CN2C(=O)c3cccc(c3)S(=O)(=O)Nc3nc(cc(-c4c(C)cccc4C)n3)OC[C@H]2CC(C)(C)C)n1 [Compound 596] |  |  | EC50 (Table 12, read-out: HBE EC50): < 1 µM; Emax (Table 12): > 60%
Cc1cccc(C)c1-c1cc2nc(n1)NS(=O)(=O)c1cccc(c1)C(=O)N(Cc1cccc(N3CC(C)(C)CC3(C)C)n1)[C@H](CC(C)(C)C)CO2 [Compound 597] |  |  | EC50 (Table 12, read-out: HBE EC50): < 1 µM; Emax (Table 12): 30 to 60%
Cc1cccc(C)c1-c1cc2nc(n1)NS(=O)(=O)c1cccc(c1)C(=O)N(Cc1cccc(C3CCCC3)n1)[C@H](CC(C)(C)C)CO2 [Compound 598] | < 1 µM | > 60% | activation at 10 µM (Table 11): > 60%
COC1CCN(c2cnc(CN3C(=O)c4cccc(c4)S(=O)(=O)Nc4nc(cc(-c5c(C)cccc5C)n4)OC[C@H]3CC(C)(C)C)nc2)C1 (stereo partly shown) [Compound 599] | 1 to 3 µM | > 60% | 
COCCN(C)c1nccc(CN2C(=O)c3cccc(c3)S(=O)(=O)Nc3nc(cc(-c4c(C)cccc4C)n3)OC[C@H]2CC(C)(C)C)n1 [Compound 600] | < 1 µM | > 60% | 
Cc1cccc(C)c1-c1cc2nc(n1)NS(=O)(=O)c1cccc(c1)C(=O)N(Cc1ccnc(N(C)CC(C)(C)C)n1)[C@H](CC(C)(C)C)CO2 [Compound 601] | < 1 µM | > 60% | 
CCN(c1ccnc(CN2C(=O)c3cccc(c3)S(=O)(=O)Nc3nc(cc(-c4c(C)cccc4C)n3)OC[C@H]2CC(C)(C)C)n1)C(C)C [Compound 602] | < 1 µM | > 60% | 
Cc1cccc(C)c1-c1cc2nc(n1)NS(=O)(=O)c1cccc(c1)C(=O)N(Cc1cccc(C3CCCCO3)n1)[C@H](CC(C)(C)C)CO2 (stereo partly shown) [Compound 603] | < 1 µM | > 60% | 
Cc1cccc(C)c1-c1cc2nc(n1)NS(=O)(=O)c1cccc(c1)C(=O)N(Cc1cccc(C3CCCCO3)n1)[C@H](CC(C)(C)C)CO2 (stereo partly shown) [Compound 604] |  |  | EC50 (Table 12, read-out: HBE EC50): < 1 µM; Emax (Table 12): > 60%
Cc1cccc(C)c1-c1cc2nc(n1)NS(=O)(=O)c1cccc(c1)C(=O)N(Cc1ncc(N3CCC(C)(C)CC3)cn1)[C@H](CC(C)C)CO2 [Compound 605] | 3 to 30 µM | > 60% | 
Cc1cccc(C)c1-c1cc2nc(n1)NS(=O)(=O)c1cccc(c1)C(=O)N(Cc1ncc(N3CCC(C)(C)C3)cn1)[C@H](CC(C)C)CO2 [Compound 606] | < 1 µM | > 60% | 
Cc1cccc(C)c1-c1cc2nc(n1)NS(=O)(=O)c1cccc(c1)C(=O)N(Cc1cnc(N3CCC(C)(C)C3)cn1)[C@H](CC(C)(C)C)CO2 [Compound 607] | < 1 µM | > 60% | 
Cc1cccc(C)c1-c1cc2nc(n1)NS(=O)(=O)c1cccc(c1)C(=O)N(Cc1cnc(N3CCC(C)(C)CC3)cn1)[C@H](CC(C)(C)C)CO2 [Compound 608] | < 1 µM | > 60% | 
Cc1cccc(C)c1-c1cc2nc(n1)NS(=O)(=O)c1cccc(c1)C(=O)N(Cc1ccc(N3CCC(C)(C)C3)cn1)[C@H](CC(C)(C)C)CO2 [Compound 609] | 1 to 3 µM | > 60% | 
Cc1cccc(C)c1-c1cc2nc(n1)NS(=O)(=O)c1cccc(c1)C(=O)N(Cc1ncc(OC(C)C)c(C)n1)[C@H](CC(C)(C)C)CO2 [Compound 610] | < 1 µM | > 60% | 
COc1cnc(CN2C(=O)c3cccc(c3)S(=O)(=O)Nc3nc(cc(-c4c(C)cccc4C)n3)OC[C@H]2CC(C)(C)C)nc1C [Compound 611] | < 1 µM | > 60% | 
Cc1cccc(C)c1-c1cc2nc(n1)NS(=O)(=O)c1cccc(c1)C(=O)N(Cc1ncc(N3CCC4(CCC4)C3)cn1)[C@H](CC(C)(C)C)CO2 [Compound 612] | < 1 µM | > 60% | 
Cc1cccc(C)c1-c1cc2nc(n1)NS(=O)(=O)c1cccc(c1)C(=O)N(Cc1ncc(N3CC4CC(C4)C3)cn1)[C@H](CC(C)(C)C)CO2 [Compound 613] |  | > 60% | EC50 (HBE EC50 (μM), Table 11): < 1 µM
Cc1cccc(C)c1-c1cc2nc(n1)NS(=O)(=O)c1cccc(c1)C(=O)N(Cc1nccc(NC3CCCCC3)n1)[C@H](CC(C)(C)C)CO2 [Compound 614] | < 1 µM | > 60% | 

Compound | EC50 (Table 11, read-out: HBE EC50) | Emax (Table 11) | further results
Cc1cccc(C)c1-c1cc2nc(n1)NS(=O)(=O)c1cccc(c1)C(=O)N(Cc1nccc(N(C)C3CC4(CC4)C3)n1)[C@H](CC(C)(C)C)CO2 [Compound 615] | < 1 µM | > 60% | 
Cc1cccc(C)c1-c1cc2nc(n1)NS(=O)(=O)c1cccc(c1)C(=O)N(Cc1nccc(N(C)C3CCOCC3)n1)[C@H](CC(C)(C)C)CO2 [Compound 616] | < 1 µM | > 60% | 
Cc1cccc(C)c1-c1cc2nc(n1)NS(=O)(=O)c1cccc(c1)C(=O)N(Cc1nccc(N(C)C3CCCC3)n1)[C@H](CC(C)(C)C)CO2 [Compound 617] | 1 to 3 µM | > 60% | 
Cc1cccc(C)c1-c1cc2nc(n1)NS(=O)(=O)c1cccc(c1)C(=O)N(Cc1nccc(N3CCC[C@H]3C)n1)[C@H](CC(C)(C)C)CO2 [Compound 618] | < 1 µM | > 60% | 
Cc1cccc(C)c1-c1cc2nc(n1)NS(=O)(=O)c1cccc(c1)C(=O)N(Cc1nccc(N3CCC(C)(C)CC3)n1)[C@H](CC(C)(C)C)CO2 [Compound 620] |  |  | HBE Max activity (%) (Table 11): + (+ is <30%); activation at 10 µM (Table 11): > 60%
Cc1cccc(C)c1-c1cc2nc(n1)NS(=O)(=O)c1cccc(c1)C(=O)N(Cc1cccc(C3=CCCC3)n1)[C@H](CC(C)(C)C)CO2 [Compound 621] | < 1 µM | > 60% | 
Cc1cccc(C)c1-c1cc2nc(n1)NS(=O)(=O)c1cccc(c1)C(=O)N(Cc1ncc(N3CC4(CC4)C3)cn1)[C@H](CC(C)(C)C)CO2 [Compound 622] | 1 to 3 µM | > 60% | 
CO[C@@H]1CCN(c2cnc(CN3C(=O)c4cccc(c4)S(=O)(=O)Nc4nc(cc(-c5c(C)cccc5C)n4)OC[C@H]3CC(C)(C)C)nc2)C1 [Compound 623] | < 1 µM | > 60% | 
CO[C@@H]1CCN(c2cccc(CN3C(=O)c4cccc(c4)S(=O)(=O)Nc4nc(cc(-c5c(C)cccc5C)n4)OC[C@H]3CC(C)(C)C)n2)C1 [Compound 624] | < 1 µM | > 60% | 
COC1CCN(c2cccc(CN3C(=O)c4cccc(c4)S(=O)(=O)Nc4nc(cc(-c5c(C)cccc5C)n4)OC[C@H]3CC(C)(C)C)n2)C1 (stereo partly shown) [Compound 625] | < 1 µM | > 60% | 
Cc1cccc(C)c1-c1cc2nc(n1)NS(=O)(=O)c1cccc(c1)C(=O)N(Cc1cccc(C3CCC3)n1)[C@H](CC(C)(C)C)CO2 [Compound 626] | < 1 µM | > 60% | 
Cc1cccc(C)c1-c1cc2nc(n1)NS(=O)(=O)c1cccc(c1)C(=O)N(Cc1nccc(N(C)C3CCC3)n1)[C@H](CC(C)(C)C)CO2 [Compound 627] | < 1 µM | > 60% | 
Cc1cccc(C)c1-c1cc2nc(n1)NS(=O)(=O)c1cccc(c1)C(=O)N(Cc1ccnc(N(C)C(C)C)n1)[C@H](CC(C)(C)C)CO2 [Compound 628] | < 1 µM | > 60% | 
Cc1cccc(C)c1-c1cc2nc(n1)NS(=O)(=O)c1cccc(c1)C(=O)N(Cc1ncc(N(C(C)C)C(C)C)cn1)[C@H](CC(C)(C)C)CO2 [Compound 629] | 3 to 30 µM | > 60% | 
Cc1cccc(C)c1-c1cc2nc(n1)NS(=O)(=O)c1cccc(c1)C(=O)N(Cc1cccc(N3CCCC3)n1)[C@H](CC(C)(C)C)CO2 [Compound 630] | < 1 µM | > 60% | 
Cc1cccc(C)c1-c1cc2nc(n1)NS(=O)(=O)c1cccc(c1)C(=O)N(Cc1ncc(C3CCN(C)CC3)cn1)[C@H](CC(C)(C)C)CO2 [Compound 631] | < 1 µM | > 60% | 
Cc1cccc(C)c1-c1cc2nc(n1)NS(=O)(=O)c1cccc(c1)C(=O)N(Cc1cccc(N3CC(C)(C)C3)n1)[C@H](CC(C)(C)C)CO2 [Compound 632] | < 1 µM | > 60% | 
Cc1cccc(C)c1-c1cc2nc(n1)NS(=O)(=O)c1cccc(c1)C(=O)N(Cc1ncc(N(C)C(C)C)cn1)[C@H](CC(C)(C)C)CO2 [Compound 633] | 1 to 3 µM | > 60% | 
Cc1cccc(C)c1-c1cc2nc(n1)NS(=O)(=O)c1cccc(c1)C(=O)N(Cc1ncc(C3CCOCC3)cn1)[C@H](CC(C)(C)C)CO2 [Compound 634] | < 1 µM | > 60% | 
Cc1cccc(C)c1-c1cc2nc(n1)NS(=O)(=O)c1cccc(c1)C(=O)N(Cc1ncc(C3CCC3)cn1)[C@H](CC(C)(C)C)CO2 [Compound 635] | 3 to 30 µM | > 60% | 
Cc1cccc(C)c1-c1cc2nc(n1)NS(=O)(=O)c1cccc(c1)C(=O)N(Cc1nccc(N3CCC(C)(C)CC3)n1)[C@H](CC(C)(C)C)CO2 [Compound 636] | < 1 µM |  | HBE Max activity (%) (Table 11): +++ (+++ is >60%)
Cc1cccc(C)c1-c1cc2nc(n1)NS(=O)(=O)c1cccc(c1)C(=O)N(Cc1cccc(N(C(C)C)C(C)C)n1)[C@H](CC(C)(C)C)CO2 [Compound 637] | 3 to 30 µM | > 60% | 
